Assay results published in US20150025131A1 (priority 2013, published 2015).
“Also recorded” adds a separate entry of the source.

Tests used:
[1] = test system: ROS production from PMA activated RAW. 267 cells (murine macrophages); experiment: Lucigenin enhanced (myeloperoxidase independent) oxidative burst; type: cell-based; conditions: lucigenin enhanced, PMA activated RAW. 267 cells
Experimental: Intracellular effect was determined using human peripheral whole blood phagocytes and isolated neutrophils and from mice peritoneum macrophages, where luminol-enhanced chemillumenescence assay was applied. The effect on myeloperoxidase independent ROS production was determined using lucigenin on murine macrophages RAW.267 cells. […] Table 2. […] 267 cells (murine macrophages). DPI is used as standard drug. Reading presents mean±SD of three determinations.

[2] = test system: ROS production from human neutrophils; experiment: Luminol enhanced chemiluminescence oxidative burst, isolated neutrophils; type: cell-based; conditions: Neutrophil, serum opsonized zymosan, read-out: Myeloperoxidase dependent Oxidative Burst (IC50 μg/mL) Neutrophils
Experimental: (§1) Intracellular effect was determined using human peripheral whole blood phagocytes and isolated neutrophils and from mice peritoneum macrophages, where luminol-enhanced chemillumenescence assay was applied. The effect on myeloperoxidase independent ROS production was determined using lucigenin on murine macrophages RAW.267 cells.
(§2) Table 2. […] 267 cells (murine macrophages). DPI is used as standard drug. Reading presents mean±SD of three determinations.
Heparinized blood was obtained by vein puncture aseptically, from healthy volunteers (25-38 years age). The buffy coat containing polymorhonuclear neutrophils (PMNs) was collected by dextran sedimentation, and cells were isolated after the LSM density gradient centrifugation. […]
(§3) Luminol enhanced chemiluminescence technique was applied to study the effect of compound on ROS from phagocytes, Using whole blood, neutrophil and macrophages Briefly, 25 μL diluted whole blood (1:50 dilution in sterile HBSS^++) or 25 μL of PMNs (1×10^6), or 25 μL of isolated macrophages (1×10^6) were incubated with 25 μL of compound in triplicates and using three different concentrations (1, 10 and 100 μg/mL) using white 96 wells plates. […] Results were monitored as relative light unit (RLU) reading, with peak and total integral values set with repeated scans at 60 seconds intervals, and 1 second points measuring time.

[3] = test system: ROS production from human peripheral whole blood phagocytes; experiment: Luminol enhanced chemiluminescence oxidative burst, whole blood; type: cell-based; conditions: luminol enhanced, serum opsonized zymosan, read-out: Myeloperoxidase dependent Oxidative Burst (IC50 μg/mL) Whole blood
Experimental: as §1, §2
Luminol enhanced chemiluminescence technique was applied to study the effect of compound on ROS from phagocytes, Using whole blood, neutrophil and macrophages Briefly, 25 μL diluted whole blood (1:50 dilution in sterile HBSS^++) or 25 μL of PMNs (1×10^6), or 25 μL of isolated macrophages (1×10^6) were incubated with 25 μL of compound in triplicates and using three different concentrations (1, 10 and 100 μg/mL) using white 96 wells plates. Wells received HBSS^++ and cells only without compound served as positive control. 25 μL of serum opsonized zymosan-A (SOZ), followed by 25 μL luminol (7×10^−5 M), was added to each well to maintain a volume of 100 μL/well. Plates were then incubated at 37° C. for 30 minutes in the thermostated chamber of the luminometer. Results were monitored as relative light unit (RLU) reading, with peak and total integral values set with repeated scans at 60 seconds intervals, and 1 second points measuring time.

[4] = test system: ROS production from mice peritoneal macrophages; experiment: Luminol enhanced chemiluminescence oxidative burst, mice peritoneal macrophages; type: cell-based; conditions: Mus musculus, Peritoneal macrophage, serum opsonized zymosan, read-out: Myeloperoxidase dependent Oxidative Burst (IC50 μg/mL) Macrophages
Experimental: as §1, §2
NMRI mice of 25 to 30 gm weight were injected aseptically with 1 mL of heat inactivated fetal bovine serum (FBS) in the peritoneum cavity, using sterile 1 mL syringe and mice were kept for further 72 h. […] Cells were counted and concentration was adjusted to 1×10^6/mL for chemiluminescence assay.
as §3

rheumatoid factor = experiment: Adjuvant induced arthritis model, serum RA factor; type: in vivo, Sprague Dawley rats; conditions: AIA rats, daily intraperitoneal; Patuletin 25 mg/kg, indomethacin 5 mg/kg
Experimental: (§4) All studies were carried out using Female Sprague Dawley (SD) rats weighing 150-250 gms. Animals were kept at 21±2° C. and on a 12-h light/dark cycle, received standardized pelleted diet and tap water. Experiments were performed under the ethical guidelines of the International Association for the study of pain in conscious animals. Each group contains 12 animals with randomly distributed weights into each treatment group.
Arthritis was induced by injecting freshly prepared 100 μL of 1 mg suspension of lyophilized Mycobacterium tuberculosis H37Ra (MT H37Ra; DIFCO Laboratories, Detroit, Mich., USA), subcutaneously at the rat tail base using sterile hypodermic needle. Inoculation was carried out under anesthesia with a combination of 20 mg/kg ketamine and 5 mg/kg xylazine, injected intraperitoneally. Compound and the reference drug were administered daily, intraperitoneally using sterile syringes. […]
Measurement of RA factor in rat serum was determined using Tina-quant RFII Kit (Roche Diagnostics, USA) and automated analyzers according to manufacturer's instructions. The test principle involves the reaction of latex bound heat inactivated IgG (antigen) with RF antibodies in the sample to form Ag/Ab complex resulting in agglutination which can be measured turbidimetrically.

[5] = test system: knee joints of arthritic rats; experiment: Adjuvant induced arthritis model, histopathology of knee joints (H & E); type: in vivo, Sprague Dawley rats; conditions: H & E staining
Experimental: as §4
(§5) Arthritis was induced by injecting freshly prepared 100 μL of 1 mg suspension of lyophilized Mycobacterium tuberculosis H37Ra (MT H37Ra; DIFCO Laboratories, Detroit, Mich., USA), subcutaneously at the rat tail base using sterile hypodermic needle. Inoculation was carried out under anesthesia with a combination of 20 mg/kg ketamine and 5 mg/kg xylazine, injected intraperitoneally. Compound and the reference drug were administered daily, intraperitoneally using sterile syringes. The positive control received vehicle (5% DMSO+PBS) or saline only; treatment groups received test compounds (25 mg/kg), whereas reference group received indomethacin (5 mg/kg). The doses of the test compounds were selected after preliminary dose finding studies. The treatment was started on the same day after vaccination.
The animals were sacrificed at the end of the experiment and samples were taken from the knee joints. Sample fixation were done using 10% formalin following decalcification. The samples were then processed, embedded, cut, mounted and stained with hematoxylin and eosin (H & E) dye for microscopic evaluation.

serum peroxide = experiment: Adjuvant induced arthritis model, serum peroxide; type: in vivo, Sprague Dawley rats; conditions: AIA rats, daily intraperitoneal; Patuletin 25 mg/kg, indomethacin 5 mg/kg
Experimental: as §4
(§6) Arthritis was induced by injecting freshly prepared 100 μL of 1 mg suspension of lyophilized Mycobacterium tuberculosis H37Ra (MT H37Ra; DIFCO Laboratories, Detroit, Mich., USA), subcutaneously at the rat tail base using sterile hypodermic needle. […]
(§7) Peroxide (PO) and nitric oxide (NO), in serum were determined in the serum samples of both the normal and arthritic groups, using quantitative colorimetric assay kits, i.e., the Quantichrom ™ Nitric Oxide Assay Kit, and the Quantichrome™ Peroxide assay kit Diox-250 (BioAssay Systems, Hayward, Calif., USA). […] The samples were analyzed in duplicates using 96-well plate and the plate was read at 540 nm. The Quantichrome™ Peroxide assay kit Diox −250 system is an improved method which utilizes the oxidation of Fe^++ by peroxide present in the analyzed sample resulting in formation of purple complex that gives the accurate measure of peroxide level in the sample when read at 540-610 nm.

serum nitric oxide = experiment: Adjuvant induced arthritis model, serum nitric oxide; type: in vivo, Sprague Dawley rats; conditions: AIA rats, daily intraperitoneal; Patuletin 25 mg/kg, indomethacin 5 mg/kg
Experimental: as §4, §6, §7

serum TNF-α = experiment: Adjuvant induced arthritis model, serum TNF-α; type: in vivo, Sprague Dawley rats; conditions: AIA rats, daily intraperitoneal; Patuletin 25 mg/kg, indomethacin 5 mg/kg
Experimental: as §4
as §5, with “The treatment was started on the same day after vaccination.” left out
(§8) The quantitative measurement of TNF-α and IL-1β was done in serum of all groups of animals including arthritic and non-arthritic using commercial ELISA assay kits (Abcam, USA) according to the manufacturer's instructions. […]

serum IL-1β = experiment: Adjuvant induced arthritis model, serum IL-1β; type: in vivo, Sprague Dawley rats; conditions: AIA rats, daily intraperitoneal; Patuletin 25 mg/kg, indomethacin 5 mg/kg
Experimental: as §4
as §5, with “The treatment was started on the same day after vaccination.” left out
as §8

[6] = test system: PHA activated T cells isolated from human peripheral blood; experiment: Thymidine incorporation T cell proliferation assay (PHA activated); type: cell-based; conditions: 72 h
Experimental: Heparinized blood was obtained by vein puncture aseptically from healthy volunteers (25-38 years age). Blood (10 mL) was mixed with incomplete RPMI, layered on 5 mL of Lymphocyte separation medium and centrifuged at 400 g for 20 min at room temperature. Buffy layer was collected and mixed with incomplete RPMI and centrifuged at 4° C. for 10 min at 300 g. Cells were obtained after the RBCs (if any) lysis using hypotonic solution, and washed at 4° C. for 10 min at 300 g. The cells were then suspended in complete RPMI containing 5% FBS and their concentration was adjusted to 2×10^6 cells/mL for T-cell proliferation assay.
Cell proliferation assay was conducted through standard thymidine incorporation technique. Briefly, isolated T-cells from peripheral blood of healthy individuals were plated at a concentration of 2×10^6 cells/mL in a round bottom 96-well tissue culture plates. Cells were stimulated with 7.5 μg/mL of PHA. […] The plate was then incubated for 72 hours at 37° C. in 5% CO2 incubator. After 72 hours, cultures were pulsed with 0.5 μCi/well tritiated thymidine (Amersham Pharmacia Biotech), and further incubated for 18 h. Cells were harvested onto a glass fiber filters using cell harvester (Innotech, Dottikon, Switzerland). The level of the thymidine incorporated into the cells was measured by a liquid scintillation counter (LS 6500, Beckman Coulter, Fullerton, Calif., USA). Results were expressed as mean count per minute (CPM). The inhibitory activity of compounds on T-lymphocyte proliferation was calculated using the following formula: […]

TNF-α production = TNF-α production from PMA differentiated, LPS activated THP-1 cells (ELISA); type: cell-based, human; conditions: 4 h
Experimental: The symbol * and δ represents the P≦0.03 and P≦0.006, respectively.
FIG. 2 depicts the effect of pentoxyfillin (PTX) on TNF-α production (pg/mL) Human monocytic leukemia THP-1 cells were differentiated and activated with 20 ng/mL of PMA and 50 ng/mL of LPS, respectively and incubated with different concentrations of PTX for 4h, the supernatant was analyzed for the level of TNF-α by ELISA. The symbol * represents P≦of 0.03.
THP-1 (human monocytic leukemia) cells were maintained in RPMI-1640 supplemented with 10% FBS, 2 mmol/L glutamine, 5.5 mmol/L glucose, 50 μmol/L mercaptoethanol, 1 mmol/L sodium pyruvate, and 10 mmol/L HEPES and incubated at 37° C. in 5% CO2. Cells were grown in […] culture flask until they attained 70% confluency. Cells were then plated in 24-well tissue culture plates at a concentration of 2.5×10^5 cells/mL. Cells were differentiated into macrophages using PMA at a final concentration of 20 ng/mL and further incubated at 37° C. in 5% CO2 environment for 24 h. […] After addition of the compound cells were then incubated for 4 h for TNF-α production and 18 h for IL-1β production at 37° C. in 5% CO2. The supernatants were harvested and analyzed for the level of TNF-α and IL-1β, by human TNF-α and IL-1β Duo set ELISA kits, and according to the manufacturer's instructions.

## [Cl-].c1ccc2c(c1)[I+]c1ccccc1-2 [DPI, reference compound]
[1]
  Myeloperoxidase independent Oxidative Burst (IC50 μg/mL) on macrophages: 1.6 ± 0.1 µg/mL

## CC(C)Cc1ccc(C(C)C(=O)O)cc1 (centres unmarked) [Ibuprofen, reference compound]
[2]
  IC50: 2.5 ± 0.6 µg/mL
[3]
  IC50: 11.2 ± 1.9 µg/mL
[4]
  IC50: 16.9 ± 2.5 µg/mL

## COc1ccc2c(c1)c(CC(=O)O)c(C)n2C(=O)c1ccc(Cl)cc1 [Indomethacin, reference compound]
Rheumatoid factor
  level of RA factor (rheumatoid factor) in serum versus arthritic control group: marked decrease
[5]
  histopathology of knee joints (in words) versus arthritic control rats: less infiltration of lymphocytes and minimal bone destruction
[5]; normal control score 0, arthritic control score 4
  histopathology score of knee joints: 2
Serum peroxide
  level of peroxide in serum versus arthritic control group: decrease; also recorded: non-significant reduction
Serum nitric oxide
  level of nitric oxide in serum versus arthritic control group: marked reduction; also recorded: significant decrease
Serum TNF-α
  level of TNF-α in serum versus arthritic control group: marked decrease
Serum IL-1β
  level of IL-1β in serum versus arthritic control group: significant decrease; also recorded: marked decrease

## C[C@]12C=CC(=O)C=C1CC[C@@H]1[C@@H]2[C@@H](O)C[C@@]2(C)[C@H]1CC[C@]2(O)C(=O)CO [Prednisolone]
[6]
  Human T cell proliferation (IC50 μg/mL): <0.62 µg/mL
[6]; Homo sapiens, T-cell, read-out: Human T cell proliferation (IC50 μg/mL)
  IC50: < 0.62 µg/mL

## CC(=O)CCCCn1c(=O)c2c(ncn2C)n(C)c1=O [pentoxyfillin, reference compound]
TNF-α production
  inhibition of TNF-α production (IC50): 94.8 µg/mL
